Test results: ChEMBL document CHEMBL5465560, “Selectivity Literature for EUbOPEN Chemogenomic Library” (2024)
Each block holds one molecule with its values, some of them ahead of it.

Legend:
[1] = biological target: T1, Bone morphogenetic protein receptor type-2 (Homo sapiens) (UniProt Q13873); details: at 10 µM
T1 sequence (whole entry): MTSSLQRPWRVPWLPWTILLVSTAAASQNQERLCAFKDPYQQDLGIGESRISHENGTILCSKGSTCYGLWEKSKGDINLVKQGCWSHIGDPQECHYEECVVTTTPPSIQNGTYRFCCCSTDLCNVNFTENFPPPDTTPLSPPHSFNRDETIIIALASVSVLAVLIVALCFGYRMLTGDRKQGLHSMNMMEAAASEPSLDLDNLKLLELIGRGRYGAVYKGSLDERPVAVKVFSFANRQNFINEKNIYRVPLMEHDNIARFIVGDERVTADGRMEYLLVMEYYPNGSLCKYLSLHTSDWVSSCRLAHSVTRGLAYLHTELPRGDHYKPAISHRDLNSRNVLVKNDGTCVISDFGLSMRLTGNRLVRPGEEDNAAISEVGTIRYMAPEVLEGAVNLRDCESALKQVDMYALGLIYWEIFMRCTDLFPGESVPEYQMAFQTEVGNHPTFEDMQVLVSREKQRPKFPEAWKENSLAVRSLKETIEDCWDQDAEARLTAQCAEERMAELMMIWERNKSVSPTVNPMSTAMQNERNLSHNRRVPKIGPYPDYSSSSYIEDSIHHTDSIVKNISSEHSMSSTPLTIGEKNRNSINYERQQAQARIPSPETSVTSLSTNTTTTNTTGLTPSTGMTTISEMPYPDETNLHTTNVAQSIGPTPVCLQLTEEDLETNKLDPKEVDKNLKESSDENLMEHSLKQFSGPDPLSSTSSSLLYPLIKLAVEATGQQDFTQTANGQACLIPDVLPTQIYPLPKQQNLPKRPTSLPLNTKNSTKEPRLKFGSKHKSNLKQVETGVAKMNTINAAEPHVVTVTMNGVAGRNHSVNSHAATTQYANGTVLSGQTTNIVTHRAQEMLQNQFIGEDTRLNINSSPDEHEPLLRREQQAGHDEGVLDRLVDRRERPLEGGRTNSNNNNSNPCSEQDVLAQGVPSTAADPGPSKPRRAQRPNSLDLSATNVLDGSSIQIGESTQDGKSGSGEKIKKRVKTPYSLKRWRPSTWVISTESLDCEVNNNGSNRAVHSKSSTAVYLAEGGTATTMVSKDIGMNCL

[2] = biological target: Mitogen-activated protein kinase 11 (Homo sapiens) (UniProt Q15759); experiment: Selectivity interaction (KinomeScan (DiscoverX)) EUB0000655a MAPK11; details: at 10 µM
[3] = biological target: T2, Serine/threonine-protein kinase Sgk3 (Homo sapiens) (UniProt Q96BR1); experiment: Selectivity interaction (KinomeScan (DiscoverX)) EUB0001619a SGK3; details: at 1 µM
T2 sequence (whole entry): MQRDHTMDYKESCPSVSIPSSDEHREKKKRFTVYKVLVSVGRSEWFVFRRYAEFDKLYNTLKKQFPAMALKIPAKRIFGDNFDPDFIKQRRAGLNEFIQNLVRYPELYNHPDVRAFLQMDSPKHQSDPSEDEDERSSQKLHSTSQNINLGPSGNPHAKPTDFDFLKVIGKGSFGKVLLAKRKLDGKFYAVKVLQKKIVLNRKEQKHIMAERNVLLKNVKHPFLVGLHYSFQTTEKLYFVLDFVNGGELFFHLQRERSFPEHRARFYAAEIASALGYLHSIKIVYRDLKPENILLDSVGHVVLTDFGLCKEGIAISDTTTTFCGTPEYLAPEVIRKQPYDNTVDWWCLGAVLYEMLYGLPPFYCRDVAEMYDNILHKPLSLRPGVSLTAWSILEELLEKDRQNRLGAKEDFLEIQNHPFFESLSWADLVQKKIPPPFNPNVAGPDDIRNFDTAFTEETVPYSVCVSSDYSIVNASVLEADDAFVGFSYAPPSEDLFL

[4] = biological target: T3, Mitogen-activated protein kinase 15 (Homo sapiens) (UniProt Q8TD08); experiment: Selectivity interaction (KinomeScan (DiscoverX)) EUB0000045b MAPK15
T3 sequence (whole entry): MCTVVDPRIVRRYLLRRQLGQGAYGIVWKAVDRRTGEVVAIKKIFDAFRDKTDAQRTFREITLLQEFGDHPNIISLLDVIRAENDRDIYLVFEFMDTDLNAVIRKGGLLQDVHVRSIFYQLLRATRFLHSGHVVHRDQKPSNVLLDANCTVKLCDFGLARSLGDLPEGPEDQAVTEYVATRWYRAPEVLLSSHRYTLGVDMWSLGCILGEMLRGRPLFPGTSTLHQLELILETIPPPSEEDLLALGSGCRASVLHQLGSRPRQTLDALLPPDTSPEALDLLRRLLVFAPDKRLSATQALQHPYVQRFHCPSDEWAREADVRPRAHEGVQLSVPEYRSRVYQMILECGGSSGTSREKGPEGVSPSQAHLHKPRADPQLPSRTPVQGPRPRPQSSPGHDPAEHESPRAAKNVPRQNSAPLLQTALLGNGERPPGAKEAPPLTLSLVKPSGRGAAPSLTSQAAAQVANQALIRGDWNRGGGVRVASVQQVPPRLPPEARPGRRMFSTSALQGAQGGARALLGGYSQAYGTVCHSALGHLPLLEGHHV

[5] = biological target: T4, Dual specificity mitogen-activated protein kinase kinase 4 (Homo sapiens) (UniProt P45985); experiment: Selectivity interaction (KinomeScan (DiscoverX)) EUB0000595a MAP2K4; details: at 10 µM
T4 sequence (whole entry): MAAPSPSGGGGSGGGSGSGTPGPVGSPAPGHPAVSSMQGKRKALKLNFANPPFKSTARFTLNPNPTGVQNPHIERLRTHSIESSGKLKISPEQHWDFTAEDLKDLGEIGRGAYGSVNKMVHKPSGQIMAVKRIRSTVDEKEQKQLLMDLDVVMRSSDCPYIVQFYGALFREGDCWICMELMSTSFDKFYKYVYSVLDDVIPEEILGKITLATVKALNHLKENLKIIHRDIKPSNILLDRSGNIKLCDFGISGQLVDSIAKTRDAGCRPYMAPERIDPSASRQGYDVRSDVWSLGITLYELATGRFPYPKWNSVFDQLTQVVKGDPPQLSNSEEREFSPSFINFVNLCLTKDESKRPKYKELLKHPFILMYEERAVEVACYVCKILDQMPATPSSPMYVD

[6] = biological target: Mitogen-activated protein kinase 14 (Homo sapiens, UniProt Q16539); experiment: Selectivity interaction (Enzyme panel (AstraZeneca, AlphaScreen, functional assay)) EUB0000621a MAPK14
[7] = biological target: Ribosomal protein S6 kinase alpha-1 (Homo sapiens, UniProt Q15418); experiment: Selectivity interaction (ActivX KiNativ screen (kinase selectivity in THP-1 cell lysates)) EUB0000639a RPS6KA1; type: subcellular; details: lysate, at 0.04 µM
[8] = biological target: ALK tyrosine kinase receptor (Homo sapiens, UniProt Q9UM73); experiment: Selectivity interaction (KinomeScan (DiscoverX)) EUB0000666a ALK; details: at 10 µM
Sequence of ALK tyrosine kinase receptor (Q9UM73 19-1620 limits assumed): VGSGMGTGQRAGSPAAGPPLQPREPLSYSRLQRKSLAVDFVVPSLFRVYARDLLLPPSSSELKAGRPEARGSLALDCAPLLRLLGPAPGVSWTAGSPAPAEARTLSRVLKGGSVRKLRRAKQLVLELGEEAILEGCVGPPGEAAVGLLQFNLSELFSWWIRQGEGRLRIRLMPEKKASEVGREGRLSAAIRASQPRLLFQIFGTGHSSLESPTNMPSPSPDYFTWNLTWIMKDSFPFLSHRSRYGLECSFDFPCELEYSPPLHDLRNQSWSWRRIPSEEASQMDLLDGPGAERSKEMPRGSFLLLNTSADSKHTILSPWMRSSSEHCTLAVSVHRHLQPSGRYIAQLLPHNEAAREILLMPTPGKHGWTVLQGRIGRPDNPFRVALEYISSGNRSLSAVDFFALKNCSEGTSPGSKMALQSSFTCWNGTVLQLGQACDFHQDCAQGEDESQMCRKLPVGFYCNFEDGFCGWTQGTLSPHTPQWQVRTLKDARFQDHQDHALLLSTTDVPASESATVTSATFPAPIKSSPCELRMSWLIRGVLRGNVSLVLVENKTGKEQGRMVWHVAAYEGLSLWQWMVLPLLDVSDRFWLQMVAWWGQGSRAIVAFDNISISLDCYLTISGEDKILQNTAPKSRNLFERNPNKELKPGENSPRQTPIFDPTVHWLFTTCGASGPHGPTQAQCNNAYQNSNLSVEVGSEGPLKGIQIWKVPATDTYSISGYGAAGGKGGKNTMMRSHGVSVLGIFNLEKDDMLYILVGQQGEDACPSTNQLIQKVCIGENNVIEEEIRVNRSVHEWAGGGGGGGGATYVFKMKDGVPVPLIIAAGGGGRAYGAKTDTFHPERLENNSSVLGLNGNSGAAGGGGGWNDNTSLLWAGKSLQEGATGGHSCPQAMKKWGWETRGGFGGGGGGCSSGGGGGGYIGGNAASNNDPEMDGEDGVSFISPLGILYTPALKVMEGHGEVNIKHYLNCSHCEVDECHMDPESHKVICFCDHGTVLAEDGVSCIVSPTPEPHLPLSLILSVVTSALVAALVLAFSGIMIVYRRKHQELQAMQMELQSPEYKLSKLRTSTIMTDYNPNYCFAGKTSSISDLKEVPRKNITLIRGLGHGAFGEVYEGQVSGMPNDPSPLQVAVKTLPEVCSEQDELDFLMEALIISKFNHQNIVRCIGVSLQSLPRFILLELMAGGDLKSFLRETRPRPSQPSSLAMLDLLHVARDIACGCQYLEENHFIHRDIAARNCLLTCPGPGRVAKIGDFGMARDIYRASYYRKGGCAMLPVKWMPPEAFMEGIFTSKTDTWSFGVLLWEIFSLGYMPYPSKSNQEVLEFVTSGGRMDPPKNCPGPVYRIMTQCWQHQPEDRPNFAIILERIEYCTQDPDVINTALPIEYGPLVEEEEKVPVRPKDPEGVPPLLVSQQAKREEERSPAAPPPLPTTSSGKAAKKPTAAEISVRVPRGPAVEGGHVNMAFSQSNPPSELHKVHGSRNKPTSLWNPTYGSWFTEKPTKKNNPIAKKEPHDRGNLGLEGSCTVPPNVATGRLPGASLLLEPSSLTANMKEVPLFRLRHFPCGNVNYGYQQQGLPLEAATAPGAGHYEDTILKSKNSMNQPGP

Sequence of Mitogen-activated protein kinase 14 (Q16539 whole entry): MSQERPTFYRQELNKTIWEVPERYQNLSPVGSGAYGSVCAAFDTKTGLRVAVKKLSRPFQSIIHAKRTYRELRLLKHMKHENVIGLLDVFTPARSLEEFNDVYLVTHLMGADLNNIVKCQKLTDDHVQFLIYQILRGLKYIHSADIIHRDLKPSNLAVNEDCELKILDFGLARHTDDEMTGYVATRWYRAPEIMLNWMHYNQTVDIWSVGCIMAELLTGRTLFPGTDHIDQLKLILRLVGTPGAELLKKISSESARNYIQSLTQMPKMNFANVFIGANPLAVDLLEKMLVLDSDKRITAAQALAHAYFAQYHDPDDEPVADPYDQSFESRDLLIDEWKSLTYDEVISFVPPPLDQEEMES
Sequence of Mitogen-activated protein kinase 11 (Homo sapiens) (Q15759 whole entry): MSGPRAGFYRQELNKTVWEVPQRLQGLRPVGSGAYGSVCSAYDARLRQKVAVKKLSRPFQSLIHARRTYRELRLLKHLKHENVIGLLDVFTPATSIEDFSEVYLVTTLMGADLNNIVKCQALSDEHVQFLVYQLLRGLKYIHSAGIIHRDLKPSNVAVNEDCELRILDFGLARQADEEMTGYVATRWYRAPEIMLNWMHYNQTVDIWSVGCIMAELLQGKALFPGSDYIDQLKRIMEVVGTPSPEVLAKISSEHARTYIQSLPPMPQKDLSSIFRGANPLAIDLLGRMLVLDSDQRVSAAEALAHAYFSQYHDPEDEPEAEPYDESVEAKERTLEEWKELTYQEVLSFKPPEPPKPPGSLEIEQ
Sequence of Ribosomal protein S6 kinase alpha-1 (Q15418 whole entry): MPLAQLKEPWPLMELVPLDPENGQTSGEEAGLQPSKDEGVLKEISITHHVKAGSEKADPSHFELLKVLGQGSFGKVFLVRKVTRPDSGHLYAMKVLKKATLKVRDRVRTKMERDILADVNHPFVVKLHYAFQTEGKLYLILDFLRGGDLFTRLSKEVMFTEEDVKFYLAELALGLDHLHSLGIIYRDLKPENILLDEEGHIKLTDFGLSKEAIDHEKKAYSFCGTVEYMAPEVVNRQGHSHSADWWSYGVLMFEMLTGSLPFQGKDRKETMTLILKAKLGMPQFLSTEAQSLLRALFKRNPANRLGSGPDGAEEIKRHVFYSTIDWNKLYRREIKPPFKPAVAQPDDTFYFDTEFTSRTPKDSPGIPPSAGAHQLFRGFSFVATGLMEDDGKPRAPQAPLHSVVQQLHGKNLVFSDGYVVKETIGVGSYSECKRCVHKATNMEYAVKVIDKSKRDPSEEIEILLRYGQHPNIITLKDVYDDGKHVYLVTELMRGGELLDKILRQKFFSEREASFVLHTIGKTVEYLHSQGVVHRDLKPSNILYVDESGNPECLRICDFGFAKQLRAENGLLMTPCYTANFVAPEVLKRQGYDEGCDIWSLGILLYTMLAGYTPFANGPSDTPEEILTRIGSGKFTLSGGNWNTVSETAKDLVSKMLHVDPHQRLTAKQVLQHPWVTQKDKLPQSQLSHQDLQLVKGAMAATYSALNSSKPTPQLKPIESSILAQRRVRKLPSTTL

% of control [1]: 100%
SMILES: CCN(CC)CCCCNc1ncc2cc(-c3cc(OC)cc(OC)c3)c(NC(=O)NC(C)(C)C)nc2n1

SMILES: CN(C)CCOc1ccc(-c2nc(-c3ccncc3)c(-c3ccc4c(c3)CC/C4=N\O)[nH]2)cc1
% of control [2]: 91%

SMILES: N#Cc1cccc(-c2c[nH]c3ncnc(N4CCOCC4)c23)c1
% of control [3]: 100%

SMILES: C=CC(=O)Nc1cc(-n2c(=O)ccc3cnc4ccc(-c5ccc(NS(C)(=O)=O)cc5)cc4c32)ccc1C
% of control ([4]; at 1 µM): 100%
% of control ([4]; at 10 µM): 100%

SMILES: COCC(=O)NC/C=C/c1ccc2ncnc(Nc3ccc(Oc4ccc(C)nc4)c(C)c3)c2c1 [CP-724714]
% of control [5]: 95%

SMILES: Cc1cc([C@@H](C)Nc2ccccc2C(=O)O)c2nc(N3CCOCC3)cc(=O)n2c1 [AZD-6482]
IC50 [6]: > 671 µM

% of inhibition [7]: 12.4%
SMILES: CC[C@@H]1[C@H](F)C(=O)N[C@@H]1COc1nccc2cc(C(N)=O)c(OC)cc12 [ZIMLOVISERTIB]

SMILES: O=C(NOC[C@H](O)CO)c1ccc(F)c(F)c1Nc1ccc(I)cc1F
% of control [8]: 100%
